Experiment [1] has as its target T1, human CB1 receptor (Homo sapiens, UniProt P21554).
T1 construct: expressed in transfected cells; host or cells: HEK293
Briefly: bioSensAll GAPL-Gi2 BRET biosensor assay in HEK293 cells transfected with hCB1; test compound added before EC75-80 of agonist CP55,940 (0.1 nM). The class given is cell-based. The settings on record: vs CP55,940 0.1 nM (EC75-80), read-out: CB1 wt Gi2 IC50. The essentials:
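Test compounds at 12 doses up to 600 nM preceded a 0.1 nM CP55,940 challenge in hCB1/GAPL-Gi2 HEK293 cells. After overnight 37° C incubation, methoxy e-coelenterazine (2 µM final) was added and the 515/400 nm BRET ratio normalized to positive and negative controls.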

The target in experiment [2] is T1, human CB1 receptor. Briefly: bioSensAll β-arrestin2 plasma membrane translocation (+GRK2) BRET biosensor assay in HEK293 cells transfected with hCB1; test compound added before EC75-80 of agonist CP55,940 (100 nM). Type of experiment: cell-based. Conditions: βArrestin2 (+GRK2) BRET biosensor, vs CP55,940 100 nM (EC75-80), read-out: CB1 wt βarr2 IC50. Put shortly:
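HEK293 cells co-transfected with hCB1 and β-arrestin2 PM-translocation BRET biosensor (+GRK2); 48 h post-transfection in HBSS, test compound (0–600 nM, 12 points) added 3–5 min before CP55,940 at 100 nM (EC75-80). Overnight incubation at 37 °C; BRET (515/400 nm) read after 2 µM e-coelenterazine Prolume Purple, standardized to controls.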

The structures appear in SMILES notation. pIC50: −log10 of the molar value.

T1 sequence (P21554 whole entry): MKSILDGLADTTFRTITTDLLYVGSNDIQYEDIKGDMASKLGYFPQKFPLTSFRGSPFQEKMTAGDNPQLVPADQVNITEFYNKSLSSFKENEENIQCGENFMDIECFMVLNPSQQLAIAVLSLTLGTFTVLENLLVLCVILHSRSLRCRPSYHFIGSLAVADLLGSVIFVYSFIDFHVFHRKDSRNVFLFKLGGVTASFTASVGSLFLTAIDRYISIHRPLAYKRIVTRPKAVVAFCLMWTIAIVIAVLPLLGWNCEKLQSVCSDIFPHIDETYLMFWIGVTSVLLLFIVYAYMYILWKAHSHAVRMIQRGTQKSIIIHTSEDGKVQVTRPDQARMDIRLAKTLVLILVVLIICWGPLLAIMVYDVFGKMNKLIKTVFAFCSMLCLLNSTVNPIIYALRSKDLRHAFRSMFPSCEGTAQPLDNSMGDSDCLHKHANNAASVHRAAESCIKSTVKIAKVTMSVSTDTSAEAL

For `C[C@@H](O)COc1nc(N2CCC(C)(C(N)=O)CC2)c2nc(-c3ccccc3Cl)n(-c3ccc(Cl)cc3)c2n1` [Compound 79, 1-[8-(2-chlorophenyl)-9-(4-chlorophenyl)-2-[(2R)-2-hydroxypropoxy]purin-6-yl]-4-methyl-piperidine-4-carboxamide], the pIC50 at human CB1 receptor [1] is 9.06; on human CB1 receptor [2] it was 8.36.

On to `C[C@H](O)COc1nc(N2CCC(C)(C(N)=O)CC2)c2nc(-c3ccccc3Cl)n(-c3ccc(Cl)cc3)c2n1` [Compound 80, 1-[8-(2-chlorophenyl)-9-(4-chlorophenyl)-2-[(2S)-2-hydroxypropoxy]purin-6-yl]-4-methyl-pi-peridine-4-carboxamide], for which the pIC50 is 8.99 on human CB1 receptor [1] and 8.29 on human CB1 receptor [2].

On to `C[C@H](CO)Oc1nc(N2CCC(C)(C(N)=O)CC2)c2nc(-c3ccccc3Cl)n(-c3ccc(Cl)cc3)c2n1` [Compound 81, 1-[8-(2-chlorophenyl)-9-(4-chlorophenyl)-2-[(1R)-2-hydroxy-1-methyl-ethoxy]purin-6-yl]-4-methyl-piperidine-4-carboxamide], for which the pIC50 was 9.05 at human CB1 receptor [1] and 8.31 at human CB1 receptor [2].

For the molecule `C[C@@H](CO)Oc1nc(N2CCC(C)(C(N)=O)CC2)c2nc(-c3ccccc3Cl)n(-c3ccc(Cl)cc3)c2n1` [Compound 82, 1-[8-(2-chlorophenyl)-9-(4-chlorophenyl)-2-[(1S)-2-hydroxy-1-methyl-ethoxy]purin-6-yl]-4-methyl-piperidine-4-carboxamide], the results for the pIC50 at human CB1 receptor [1] and on human CB1 receptor [2] were 9.12 and 8.35, respectively.

Regarding `C[C@@H](O)CNc1nc(N2CCC(C)(C(N)=O)CC2)c2nc(-c3ccccc3Cl)n(-c3ccc(Cl)cc3)c2n1` [Compound 83, 1-[8-(2-chlorophenyl)-9-(4-chlorophenyl)-2-[[(2R)-2-hydroxypropyl]amino]purin-6-yl]-4-methyl-piperidine-4-carboxamide], the pIC50 was 8.94 on human CB1 receptor [1] and 8.20 on human CB1 receptor [2].

Take `C[C@H](O)CNc1nc(N2CCC(C)(C(N)=O)CC2)c2nc(-c3ccccc3Cl)n(-c3ccc(Cl)cc3)c2n1` [Compound 84, 1-[8-(2-chlorophenyl)-9-(4-chlorophenyl)-2-[[(2S)-2-hydroxypropyl]amino]purin-6-yl]-4-methyl-piperidine-4-carboxamide]: the pIC50 at human CB1 receptor [1] is 8.68; at human CB1 receptor [2] it was 7.93.

For `CC(C)(O)CNc1nc(N2CCC(C)(C(N)=O)CC2)c2nc(-c3ccccc3Cl)n(-c3ccc(Cl)cc3)c2n1` [Compound 85, 1-[8-(2-chlorophenyl)-9-(4-chlorophenyl)-2-[(2-hydroxy-2-methyl-propyl)amino]purin-6-yl]-4-methyl-piperidine-4-carboxamide], the pIC50 on human CB1 receptor [1] was 9.12; on human CB1 receptor [2], 8.17.

Consider `CC(C)Oc1nc(OCC(C)(C)O)nc2c1nc(-c1ccccc1Cl)n2-c1ccc(Cl)cc1` [Compound 86], for which the values for the pIC50 on human CB1 receptor [1] and at human CB1 receptor [2] were 8.86 and 8.02, respectively.

Turning to `CC(C)Nc1nc(OCC(C)(C)O)nc2c1nc(-c1ccccc1Cl)n2-c1ccc(Cl)cc1` [Compound 87], the pIC50 on human CB1 receptor [1] was 8.51; on human CB1 receptor [2], 7.67.

In the case of `CC(C)C(=O)Nc1nc(N2CCC(C)(C#N)CC2)c2nc(-c3ccccc3Cl)n(-c3ccc(Cl)cc3)c2n1` [Compound 89, N-[8-(2-chlorophenyl)-9-(4-chlorophenyl)-6-(4-cyano-4-methyl-1-piperidyl)purin-2-yl]-2-methyl-propanamide], the pIC50 was 9.10 at human CB1 receptor [1] and 8.64 at human CB1 receptor [2].

`CCN(CCO)c1nc(N2CCC(C)(C(N)=O)CC2)c2nc(-c3ccccc3Cl)n(-c3ccc(Cl)cc3)c2n1` [Compound 90, 1-[8-(2-chlorophenyl)-9-(4-chlorophenyl)-2-[ethyl(2-hydroxyethyl)amino]purin-6-yl]-4-methyl-piperidine-4-carboxamide]: the pIC50 on human CB1 receptor [1] is 9.28; at human CB1 receptor [2] it was 8.87.

Take `CO[C@@H]1CCN(c2nc(N3CCC(C)(C(N)=O)CC3)c3nc(-c4ccccc4Cl)n(-c4ccc(Cl)cc4)c3n2)C1` [Compound 91, 1-[8-(2-chlorophenyl)-9-(4-chlorophenyl)-2-[(3R)-3-methoxypyrrolidin-1-yl]purin-6-yl]-4-methyl-piperidine-4-carboxamide]: the pIC50 is 9.10 on human CB1 receptor [1] and 8.59 at human CB1 receptor [2].

Consider `CO[C@H]1CCN(c2nc(N3CCC(C)(C(N)=O)CC3)c3nc(-c4ccccc4Cl)n(-c4ccc(Cl)cc4)c3n2)C1` [Compound 92, 1-[8-(2-chlorophenyl)-9-(4-chlorophenyl)-2-[(3S)-3-methoxypyrrolidin-1-yl]purin-6-yl]-4-methyl-piperidine-4-carboxamide], for which the pIC50 at human CB1 receptor [1] was 8.77; at human CB1 receptor [2] it was 8.10.

For `CC1(C(N)=O)CCN(c2nc(N3CC[C@@H](O)C3)nc3c2nc(-c2ccccc2Cl)n3-c2ccc(Cl)cc2)CC1` [Compound 93, 1-[8-(2-chlorophenyl)-9-(4-chlorophenyl)-2-[(3R)-3-hydroxypyrrolidin-1-yl]purin-6-yl]-4-methyl-piperidine-4-carboxamide], the pIC50 on human CB1 receptor [1] is 9.22; on human CB1 receptor [2], 8.84.

`CC1(C(N)=O)CCN(c2nc(N3CC[C@H](O)C3)nc3c2nc(-c2ccccc2Cl)n3-c2ccc(Cl)cc2)CC1` [Compound 94, 1-[8-(2-chlorophenyl)-9-(4-chlorophenyl)-2-[(3S)-3-hydroxypyrrolidin-1-yl]purin-6-yl]-4-methyl-piperidine-4-carboxamide]: the pIC50 on human CB1 receptor [1] is 9.09; on human CB1 receptor [2], 8.62.

As to `CC(C)(O)COc1nc(N2CCC(C)(C(N)=O)CC2)c2nc(-c3ccccc3Cl)n(-c3ccccc3)c2n1` [Compound 95, 1-[8-(2-chlorophenyl)-2-(2-hydroxy-2-methyl-propoxy)-9-phenyl-purin-6-yl]-4-methyl-piperidine-4-carboxamide], the pIC50 on human CB1 receptor [1] is 7.89; at human CB1 receptor [2], 7.14.

With `CC(C)N1CCN(c2nc(OCC(C)(C)O)nc3c2nc(-c2ccccc2Cl)n3-c2ccc(Cl)cc2)CC1` [Compound 96], the pIC50 at human CB1 receptor [1] is 8.46; at human CB1 receptor [2] it was 8.25.

For `CN(CCO)c1nc(OCC(C)(C)O)nc2c1nc(-c1ccccc1Cl)n2-c1ccc(Cl)cc1` [Compound 97], the pIC50 at human CB1 receptor [1] was 7.59; at human CB1 receptor [2], 6.91.

For the molecule `CCOc1nc(OCC(C)(C)O)nc2c1nc(-c1ccccc1Cl)n2-c1ccc(Cl)cc1` [Compound 99], the pIC50 at human CB1 receptor [1] was 8.35; on human CB1 receptor [2], 7.44.

Consider `CC(C)(O)COc1nc(NCC(N)=O)c2nc(-c3ccccc3Cl)n(-c3ccc(Cl)cc3)c2n1` [Compound 100], for which the pIC50 at human CB1 receptor [1] and at human CB1 receptor [2] was below 5.30 in each case.

On to `CC(C)Oc1nc(OC[C@H](C)O)nc2c1nc(-c1ccccc1Cl)n2-c1ccc(Cl)cc1` [Compound 101], for which the pIC50 at human CB1 receptor [1] was 8.82; at human CB1 receptor [2], 7.80.

As for `CN(C)CCNc1nc(N2CCC(C)(C(N)=O)CC2)c2nc(-c3ccccc3Cl)n(-c3ccc(Cl)cc3)c2n1` [Compound 102, 1-[8-(2-chlorophenyl)-9-(4-chlorophenyl)-2-[2-(dimethylamino)ethylamino]purin-6-yl]-4-methyl-piperidine-4-carboxamide], the pIC50 on human CB1 receptor [1] was 7.30; at human CB1 receptor [2], 7.40.

On to `CC(C)(O)COc1nc(N2CCC(C)(C(N)=O)CC2)c2nc(-c3cccnc3)n(-c3ccc(Cl)cc3)c2n1` [Compound 103, 1-[9-(4-chlorophenyl)-2-(2-hydroxy-2-methyl-propoxy)-8-(3-pyridyl)purin-6-yl]-4-methyl-piperidine-4-carboxamide], for which the figures for the pIC50 on human CB1 receptor [1] and at human CB1 receptor [2] were 6.88 and below 5.30, respectively.

As for `Cc1ncccc1-c1nc2c(N3CCC(C)(C(N)=O)CC3)nc(OCC(C)(C)O)nc2n1-c1ccc(Cl)cc1` [Compound 104, 1-[9-(4-chlorophenyl)-2-(2-hydroxy-2-methyl-propoxy)-8-(2-methyl-3-pyridyl)purin-6-yl]-4-methyl-piperidine-4-carboxamide], the pIC50 was 7.31 on human CB1 receptor [1] and below 5.30 on human CB1 receptor [2].

As to `Cc1ccncc1-c1nc2c(N3CCC(C)(C(N)=O)CC3)nc(OCC(C)(C)O)nc2n1-c1ccc(Cl)cc1` [Compound 105, 1-[9-(4-chlorophenyl)-2-(2-hydroxy-2-methyl-propoxy)-8-(4-methyl-3-pyridyl)purin-6-yl]-4-methyl-piperidine-4-carboxamide], the pIC50 at human CB1 receptor [1] was 7.75; on human CB1 receptor [2], 6.12.

As for `CC(C)(O)COc1nc(N2CCC(C)(C(N)=O)CC2)c2nc(-c3ccc(C#N)cc3)n(-c3ccc(Cl)cc3)c2n1` [Compound 106, 1-[9-(4-chlorophenyl)-8-(4-cyanophenyl)-2-(2-hydroxy-2-methyl-propoxy)purin-6-yl]-4-methyl-piperidine-4-carboxamide], the pIC50 is 7.85 at human CB1 receptor [1] and 7.29 on human CB1 receptor [2].

Turning to `Cc1cc(C#N)ncc1-c1nc2c(N3CCC(C)(C(N)=O)CC3)nc(OCC(C)(C)O)nc2n1-c1ccc(Cl)cc1` [Compound 108, 1-[9-(4-chlorophenyl)-8-(6-cyano-4-methyl-3-pyridyl)-2-(2-hydroxy-2-methyl-propoxy)purin-6-yl]-4-methyl-piperidine-4-carboxamide], the pIC50 was 8.45 on human CB1 receptor [1] and 7.58 on human CB1 receptor [2].

Consider `CC(C)(O)COc1nc(N2CCC(C)(C(N)=O)CC2)c2nc(-c3ccc(C#N)nc3)n(-c3ccc(Cl)cc3)c2n1` [Compound 109, 1-[9-(4-chlorophenyl)-8-(6-cyano-3-pyridyl)-2-(2-hydroxy-2-methyl-propoxy)purin-6-yl]-4-methyl-piperidine-4-carboxamide], for which the pIC50 at human CB1 receptor [1] is 7.88; on human CB1 receptor [2], 7.21.

Values taken from patent US20250333418A1, “PURINE COMPOUNDS, COMPOSITIONS COMPRISING THEM AND USES THEREOF” (Novo Nordisk A/S, priority 2022, published 2025).
